In patent US9717806B2, “Method for detecting cancer using ICG fluorescence method” (Osaka Prefectural Hospital Organization, priority 2008, dated 2017):

Tests used:
Assay type in all cases: in vivo, human
[1] = tested on: hepatocellular carcinoma; assay: Intraoperative ICG fluorescence detection of accessory lesions with infrared camera system PDE, primary liver cancer; settings: for confirmation of HCC areas by intraoperative PDE diagnosis: identification of main tumor by intraoperative ultrasonography was difficult
Method: (§1) Now the method of detecting an accessory cancer lesion using the accessory cancer lesion detector illustrated in FIG. 1 is described. First, the fluorescent dye indocyanine green is injected intravenously. After the lapse of a certain time (typically 1 to 10 days from the intravenous injection), when excitation light 10 of a certain wavelength (760 nm for instance) is irradiated on the target organ 20 from the excitation light source unit 2, a fluorescence image 11 in the near-infrared wavelength band is emitted by the accessory cancer lesion because of the indocyanine green. Here, the optical filter 3 allows the passage of the fluorescence image 11 while cutting off the reflected light coming from the target organ 20 that is being irradiated by the excitation light 10.
(§2) The fluorescence image 11 that passes through the optical filter 3 is captured by the CCD camera used as the imager 4, and the data of the observed image is output from the CCD camera to the controller 5. The controller 5 controls the brightness and contrast of the observed image coming from the imager 4. As a result, the observed image 15 (which includes the image of the main cancer lesion) containing the accessory cancer lesion image 16 is generated. […] Furthermore, if necessary, the observed image 15 is recorded on a recording medium in the image recorder 7.
(§3) In the examples 1 to 5 given below, the ICG (0.5 mg/kg) was injected intravenously a few days before the surgery. In other words, in the examples 1, 2, 3, 4, and 5, the intravenous ICG injection was administered, respectively, 4, 4, 8, 1, and 4 days before the surgery. […] In examples 1 to 4, the cancer was primary liver cancer, and in Example 5 it was metastatic liver cancer.

[2] = tested on: metastatic liver cancer; assay: Intraoperative ICG fluorescence detection of accessory lesions with infrared camera system PDE, metastatic liver cancer; settings: Example 5, person; ICG 0.5 mg/kg intravenously 4 days before surgery; S4 segment of the liver; histology: adenocarcinoma, metastasis of colon cancer into the liver
Method: as §1
as §2, with “7. […]” for “7.”

[3] = tested on: hepatocellular carcinoma; assay: PDE observation of cross-sections of resected, formalin-fixed liver slices after ICG injection; settings: Example 4, ICG 0.5 mg/kg intravenously 1 day before surgery, 3 mm thick slices, areas diagnosed as highly differentiated HCC
Method: as §3
Example 4 was a case of a person. Preoperative contrast CT detected the presence of a single HCC, 25 mm in diameter, in the S5 segment of the liver. FIG. 6A is an image showing the result of contrast CT. The arrow indicates the HCC. […] FIG. 6B is a near-infrared fluorescence intensity distribution image (measured after the abdomen was opened but before the resection) from ICG in the liver. The fluorescent area indicated by the arrow at left is the main tumor area (main lesion), and the two arrows (arrowheads) on the right indicate fluorescent areas (accessory lesions), 3 mm in diameter, observed around the main tumor. Based on the above measurements, more than one fluorescent area (accessory lesions), each 3 mm in diameter, were resected in addition to the main tumor (main lesion). Further, the resected liver was fixed in formalin and made into 3 mm thick slices (FIG. 6C and FIG. 6G), and the cross-sections observed with the PDE (FIG. 6D and FIG. 6H). […]

SMILES: CC1(C)C(/C=C/C=C/C=C/C=C2\N(CCCCS(=O)(=O)O)c3ccc4ccccc4c3C2(C)C)=[N+](CCCCS(=O)(=O)[O-])c2ccc3ccccc3c21 [ICG, indocyanine green]
- diameter of fluorescent area (accessory lesion) detected in addition to the main tumor ([1]; Example 1, person, ICG 0.5 mg/kg intravenously 4 days before surgery, S4 segment of the liver, not detected by contrast CT, histology: highly differentiated HCC): 5 mm
- diameter of fluorescent area (accessory lesion) ([1]; Example 3, person, ICG 0.5 mg/kg intravenously 8 days before surgery, S5 segment of the liver, histology: slightly less differentiated HCC than the main tumor): 5 mm
- confirmation of HCC areas by intraoperative PDE diagnosis ([1]; Example 3, ICG 0.5 mg/kg intravenously 8 days before surgery): could confirm the HCC areas (main and accessory lesions) as fluorescent areas
- diameter of fluorescent areas (accessory lesions) observed around the main tumor ([1]; Example 4, person, ICG 0.5 mg/kg intravenously 1 day before surgery, histology: highly differentiated HCC): 3 mm
- confirmation of HCC areas by intraoperative PDE diagnosis ([1]; Example 4, ICG 0.5 mg/kg intravenously 1 day before surgery): could confirm the HCC areas (main and accessory lesions) as fluorescent areas
- diameter of fluorescent area (accessory lesion) detected apart from the two lesions identified before the surgery [2]: 5 mm
- near-infrared fluorescence in cross-sections of resected liver [3]: light emission from areas where no nodule was detected macroscopically
